One assay deals with LZK (Homo sapiens (Human), UniProt O43283). The experiment in a line: LZK biochemical assay (TR-FRET, MKK7 phosphorylation). The essentials:
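Readout is the HTRF ratio (XL665/Eu) from an EDTA-containing detection mix of 0.4 nM Eu-anti-phospho-MKK7 (T275/S277) and 20 nM XL665-anti-His, incubated 16 h at 32° C. This followed a 90 min RT reaction of 10 nM LZK catalytic domain, 15 nM MKK7 and 15 μM ATP at pH 7.5.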
A general note: Time-resolved FRET reads energy transfer from a long-lived donor to a nearby acceptor.

The next assay addresses DLK (Homo sapiens (Human), UniProt Q12852). The assay is described as follows: DLK biochemical assay (TR-FRET, MKK7 phosphorylation). The essentials: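 TR-FRET ratio (665/Eu) reports MKK7 T275/S277 phosphorylation, lowered by DLK inhibition. Reaction: 60 μM ATP, 15 nM MKK7, 10 nM DLK catalytic domain, 90 min room temperature; detection incubation 16 h, 37° C. (1536-well) or 4° C. (384-well). Final concentrations.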

Sequence of DLK (Q12852 1-520): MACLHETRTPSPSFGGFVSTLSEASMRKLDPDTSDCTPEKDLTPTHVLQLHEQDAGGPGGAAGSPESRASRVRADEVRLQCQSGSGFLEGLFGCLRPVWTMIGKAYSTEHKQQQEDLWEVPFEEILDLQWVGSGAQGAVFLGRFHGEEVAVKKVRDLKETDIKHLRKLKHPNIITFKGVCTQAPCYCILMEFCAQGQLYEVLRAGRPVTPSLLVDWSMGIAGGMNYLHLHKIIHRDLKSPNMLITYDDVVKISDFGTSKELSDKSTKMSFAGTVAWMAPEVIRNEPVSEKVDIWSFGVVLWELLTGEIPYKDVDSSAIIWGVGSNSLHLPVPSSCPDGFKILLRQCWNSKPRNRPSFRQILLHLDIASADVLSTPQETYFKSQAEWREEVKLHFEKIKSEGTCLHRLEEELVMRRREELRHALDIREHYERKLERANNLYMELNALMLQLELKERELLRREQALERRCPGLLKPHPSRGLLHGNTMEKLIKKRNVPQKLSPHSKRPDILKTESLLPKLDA
Sequence of LZK (O43283 168-409): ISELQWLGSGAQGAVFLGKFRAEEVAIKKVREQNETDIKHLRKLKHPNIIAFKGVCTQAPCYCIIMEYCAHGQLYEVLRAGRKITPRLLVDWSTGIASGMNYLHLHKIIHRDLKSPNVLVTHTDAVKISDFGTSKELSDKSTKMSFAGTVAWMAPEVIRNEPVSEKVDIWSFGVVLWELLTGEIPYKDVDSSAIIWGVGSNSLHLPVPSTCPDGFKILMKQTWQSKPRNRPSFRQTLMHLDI

As to `C[C@@H](NC(=O)c1cc(-c2ccc3nc(N)nn3c2)cs1)c1ccc(F)cc1` [Compound 298], the IC50 (in general, the concentration that gives 50% inhibition) against LZK turned out to be 4200 nM; on DLK it was 350 nM.
For the molecule `Nc1nc2ccc(-c3csc(C(=O)NC4(c5ccc(F)cc5)CC4)c3)cn2n1` [Compound 299], the IC50 on LZK was 2500 nM; at DLK, 120 nM.
The matching figures for `Nc1nc2cc(F)c(-c3csc(C(=O)NCc4ccc(F)cc4)c3)cn2n1` [Compound 300]: 3700 nM and 1100 nM.
The matching figures for `CC(C)C(NC(=O)c1cc(-c2ccc3nc(N)nn3c2)cs1)c1ccc(F)cc1` (stereo not shown) [Compound 301]: 16500 nM and 100 nM.
On the same counts, the results for `C[C@H](NC(=O)c1cc(-c2ccc3nc(N)nn3c2)cs1)c1ccc(F)cc1` [Compound 302] are 1130 nM and 75.5 nM.
On to `CC(NC(=O)c1cc(-c2ccc3nc(N)nn3c2)cs1)c1ccc(F)cc1` (stereo not shown) [Compound 303], for which the IC50 against LZK worked out at 1800 nM; at DLK it was 130 nM.
On the same counts, the results for `Cc1cccc2oc(CNC(=O)c3cc(-c4ccc5nc(N)nn5c4)cs3)nc12` [Compound 304] are 4300 nM and 220 nM.
The matching figures for `Cc1sc(C(=O)NCc2ccc(F)cc2)cc1-c1ccc2nc(N)nn2c1` [Compound 305]: more than 30000 nM and more than 30000 nM.
The matching figures for `Nc1nc2ccc(-c3csc(C(=O)NC4COc5ccc(F)cc54)c3)cn2n1` (stereo not shown) [Compound 306]: 2500 nM and 130 nM.
With `Nc1nc2ccc(-c3csc(C(=O)NC4CCc5ccccc54)c3)cn2n1` (stereo not shown) [Compound 307], the IC50 at LZK was 4500 nM; on DLK, 150 nM.
The matching figures for `CC(C)(NC(=O)c1cc(-c2ccc3nc(N)nn3c2)cs1)c1ccc(F)cc1` [Compound 308]: 3000 nM and 300 nM.
On the same counts, the results for `Nc1nc2ccc(-c3csc(C(=O)NC4(c5ccc(F)cc5)CCC4)c3)cn2n1` [Compound 309] are 6600 nM and 120 nM.
As for `Nc1nc2ccc(-c3csc(C(=O)NC4(c5ccc(F)cc5)CCCC4)c3)cn2n1` [Compound 310], the figures for the half-inhibitory concentration (IC50) against LZK and against DLK were 17000 nM and 51 nM, respectively.
The matching figures for `COc1cccc(CNC(=O)c2cc(-c3ccc4nc(N)nn4c3)c(C)s2)c1` [Compound 311]: more than 30000 nM and 19000 nM.
In the case of `Cc1sc(C(=O)NC2CCCCC2)cc1-c1ccc2nc(N)nn2c1` [Compound 312], the IC50 against LZK and on DLK was more than 30000 nM in each case.
`Cc1sc(C(=O)NCc2nc3ccccc3o2)cc1-c1ccc2nc(N)nn2c1` [Compound 313]: the IC50 is more than 30000 nM at LZK and 24000 nM at DLK.
The matching figures for `Nc1nc2ccc(-c3csc(C(=O)NC4(c5ccc(F)cc5)COC4)c3)cn2n1` [Compound 314]: 7000 nM and 530 nM.
As to `Nc1nc2ccc(-c3csc(C(=O)NC4CCOc5ccc(F)cc54)c3)cn2n1` (stereo not shown) [Compound 315], the IC50 on LZK was 4800 nM; against DLK, 130 nM.
In the case of `CC1(C)CC(NC(=O)c2cc(-c3ccc4nc(N)nn4c3)cs2)c2ccccc2O1` (stereo not shown) [Compound 316], the IC50 at LZK amounted to 4700 nM; against DLK, 180 nM.
For the molecule `Nc1nc2ccc(-c3csc(C(=O)NC4CCOc5ccccc54)c3)cn2n1` (stereo not shown) [Compound 317], the IC50 against LZK turned out to be 3600 nM; on DLK, 97 nM.
Consider `Nc1nc2ccc(-c3csc(C(=O)NC4CCCc5cc(F)ccc54)c3)cn2n1` (stereo not shown) [Compound 318], for which the figures for the IC50 at LZK and on DLK were 1700 nM and 130 nM, respectively.
The matching figures for `CC[C@H](NC(=O)c1cc(-c2ccc3nc(N)nn3c2)cs1)c1ccc(F)cc1` [Compound 319]: 1700 nM and 120 nM.
On the same counts, the results for `Cc1sc(C(=O)NCc2ccccc2)cc1-c1ccc2nc(N)nn2c1` [Compound 320] are more than 30000 nM and more than 30000 nM.
Take `CCC[C@H](NC(=O)c1cc(-c2ccc3nc(N)nn3c2)cs1)c1ccccc1` [Compound 321]: the IC50 is 3700 nM against LZK and 67 nM on DLK.
On to `COC[C@H](NC(=O)c1cc(-c2ccc3nc(N)nn3c2)cs1)c1ccccc1` [Compound 322], for which the IC50 stood at 1400 nM against LZK and 120 nM against DLK.
On the same counts, the results for `C[C@H](NC(=O)c1cc(-c2ccc3nc(N)nn3c2)cs1)c1ccccc1` [Compound 323] are 2950 nM and 164 nM.
The matching figures for `CC[C@H](NC(=O)c1cc(-c2ccc3nc(N)nn3c2)cs1)c1ccccc1` [Compound 324]: 1600 nM and 62 nM.
On to `C[C@@H](NC(=O)c1cc(-c2ccc3nc(N)nn3c2)cs1)c1ccccc1` [Compound 325], for which the IC50 against LZK is more than 30000 nM; on DLK, 280 nM.
On the same counts, the results for `Nc1nc2ccc(-c3csc(C(=O)N[C@H](c4ccccc4)C(F)(F)F)c3)cn2n1` [Compound 326] are more than 30000 nM and 255 nM.
In the case of `Nc1nc2ccc(-c3csc(C(=O)NC(c4ccccc4)C4CC4)c3)cn2n1` (stereo not shown) [Compound 327], the figures for the IC50 on LZK and against DLK were 6100 nM and 42 nM, respectively.
The matching figures for `Nc1nc2ccc(-c3csc(C(=O)NCc4ccc(CN5CCCC5=O)cc4)c3)cn2n1` [Compound 328]: 8200 nM and 400 nM.
The matching figures for `CCN(CC)Cc1ccc(CNC(=O)c2cc(-c3ccc4nc(N)nn4c3)cs2)cc1` [Compound 329]: 21000 nM and 740 nM.
On the same counts, the results for `CC(NC(=O)c1cc(-c2ccc3nc(N)nn3c2)cs1)c1cnn(C)c1` (stereo not shown) [Compound 330] are 12000 nM and 640 nM.
Turning to `CCn1ccc(C(C)NC(=O)c2cc(-c3ccc4nc(N)nn4c3)cs2)n1` (stereo not shown) [Compound 331], the IC50 was 13000 nM against LZK and 910 nM at DLK.
Take `CC(NC(=O)c1cc(-c2ccc3nc(N)nn3c2)cs1)c1nc2c(s1)CCCC2` (stereo not shown) [Compound 332]: the values for the IC50 against LZK and at DLK were 3100 nM and 150 nM, respectively.
On to `CC(NC(=O)c1cc(-c2ccc3nc(N)nn3c2)cs1)c1cn[nH]c1` (stereo not shown) [Compound 333], for which the IC50 on LZK was found to be 6800 nM; on DLK, 490 nM.
On the same counts, the results for `Cc1nc(C(C)NC(=O)c2cc(-c3ccc4nc(N)nn4c3)cs2)sc1C` (stereo not shown) [Compound 334] are 5800 nM and 400 nM.
For the molecule `CC(NC(=O)c1cc(-c2ccc3nc(N)nn3c2)cs1)c1nc2ccccc2n1C` (stereo not shown) [Compound 335], the IC50 at LZK is 3500 nM; against DLK, 140 nM.
On the same counts, the results for `Nc1nc2ccc(-c3csc(C(=O)NC(c4ccc(F)cc4)C(F)(F)F)c3)cn2n1` (stereo not shown) [Compound 336] are more than 30000 nM and 290 nM.
The matching figures for `Nc1nc2ccc(-c3csc(C(=O)NC(CO)c4ccc(F)cc4)c3)cn2n1` (stereo not shown) [Compound 337]: 1400 nM and 480 nM.
The matching figures for `CCC(NC(=O)c1cc(-c2ccc3nc(N)nn3c2)cs1)c1ccc(F)cc1` (stereo not shown) [Compound 338]: more than 30000 nM and 190 nM.
As to `COC[C@H](C)NC(=O)c1cc(-c2ccc3nc(N)nn3c2)cs1` [Compound 339], the IC50 was more than 30000 nM at LZK and 2300 nM against DLK.
The matching figures for `Nc1nc2ccc(-c3csc(C(=O)NC4COC4)c3)cn2n1` [Compound 340]: more than 30000 nM and 4300 nM.
With `Nc1nc2ccc(-c3csc(C(=O)N[C@@H](CCO)c4ccc(F)cc4)c3)cn2n1` [Compound 341], the IC50 against LZK turned out to be 5100 nM; against DLK it was 230 nM.
On the same counts, the results for `Nc1nc2ccc(-c3csc(C(=O)NCc4ccc(CN5CCOCC5)cc4)c3)cn2n1` [Compound 342] are 17000 nM and 520 nM.
With `CN1CCN(Cc2ccc(CNC(=O)c3cc(-c4ccc5nc(N)nn5c4)cs3)cc2)CC1` [Compound 343], the values for the IC50 against LZK and against DLK were 27000 nM and 860 nM, respectively.
The matching figures for `Nc1nc2ccc(-c3csc(C(=O)NCc4ccc(CN5CCCC5)cc4)c3)cn2n1` [Compound 344]: 21000 nM and 470 nM.
On the same counts, the results for `C[C@@H](CO)NC(=O)c1cc(-c2ccc3nc(N)nn3c2)cs1` [Compound 345] are more than 30000 nM and 2300 nM.
On the same counts, the results for `Nc1nc2ccc(-c3csc(C(=O)NC(c4ccccc4)C4CC4)c3)cn2n1` (stereo not shown) [Compound 346] are 29000 nM and 79 nM.
As for `Nc1nc2ccc(-c3csc(C(=O)NC(c4ccccc4)C4CC4)c3)cn2n1` (stereo not shown) [Compound 347], the IC50 on LZK is more than 30000 nM; against DLK, 130 nM.
The matching figures for `CC(NC(=O)c1cc(-c2ccc3nc(N)nn3c2)cs1)c1ccc(C(C)(C)C)cc1` (stereo not shown) [Compound 348]: 30000 nM and 30000 nM.
As to `Cc1ccc([C@H](C)NC(=O)c2cc(-c3ccc4nc(N)nn4c3)cs2)cc1` [Compound 349], the IC50 worked out at 24000 nM against LZK and 230 nM on DLK.
On the same counts, the results for `CC(NC(=O)c1cc(-c2ccc3nc(N)nn3c2)cs1)c1nccn1C` (stereo not shown) [Compound 350] are 20500 nM and 760 nM.
The matching figures for `Cc1c(-c2ccc3nc(N)nn3c2)csc1C(=O)N[C@@H](C)c1ccc(F)cc1` [Compound 351]: 20000 nM and 6400 nM.
On the same counts, the results for `Cc1c(-c2ccc3nc(N)nn3c2)csc1C(=O)NCc1ccc(F)cc1` [Compound 352] are more than 30000 nM and 1000 nM.
With `C[C@H](NC(=O)c1cc(-c2ccc3nc(N)nn3c2)cs1)c1ccc(C(F)(F)F)cc1` [Compound 353], the IC50 against LZK was more than 30000 nM; against DLK, 210 nM.

(Values after patent US20230382904A1, “SUBSTITUTED 4-([1,2,4]TRIAZOLO[1,5-a]PYRIDIN-6-YL)THIOPHENE-2-CARBOXAMIDE DERIVATIVES AND USE THEREOF” (The Johns Hopkins University, priority 2020, published 2023).)
